In assay [1] the target is T1, Voltage-dependent T-type calcium channel subunit alpha-1G (Homo sapiens, UniProt O43497). Kind of assay: Inhibition of human Cav3.1 expressed in tsA-201 cells at 10uM by patch clamp electrophysiology. The format is cell-based. (Patch clamp records ionic current or voltage across a cell membrane.)
Assay [2] concerns the target T2, Voltage-dependent T-type calcium channel subunit alpha-1H (Homo sapiens, UniProt O95180). Kind of assay: Inhibition of human Cav3.2 expressed in tsA-201 cells at 10uM by patch clamp electrophysiology. The format is cell-based.
Assay [3] concerns the target T3, Voltage-dependent T-type calcium channel subunit alpha-1I (Homo sapiens, UniProt Q9P0X4). Kind of assay: Inhibition of human Cav3.3 expressed in tsA-201 cells at 10uM by patch clamp electrophysiology. In kind it is cell-based.
The test system of the next assay is A549. Kind of assay: Cytotoxicity against human A549 cells assessed as reduction in cell viability after 48 hrs by MTT assay. The format is functional, cell-based. Particulars: A549, 48 h. A general note: Formazan colour is commonly taken as a measure of viable cells.
A further assay relates to HCT-116. Kind of assay: Cytotoxicity against human HCT116 cells assessed as reduction in cell viability after 48 hrs by MTT assay. The settings on record: HCT-116, 48 h. The format is functional, cell-based.
Assay [4] has as its target T1, Voltage-dependent T-type calcium channel subunit alpha-1G. As to the kind of experiment: Inhibition of human Cav3.1 expressed in tsA-201 cells by patch clamp electrophysiology. In kind it is cell-based.
Assay [5] deals with T2, Voltage-dependent T-type calcium channel subunit alpha-1H. As to the kind of experiment: Inhibition of human Cav3.2 expressed in tsA-201 cells by patch clamp electrophysiology. In kind it is cell-based.
The target in assay [6] is T3, Voltage-dependent T-type calcium channel subunit alpha-1I. Kind of assay: Inhibition of human Cav3.3 expressed in tsA-201 cells by patch clamp electrophysiology. The format is cell-based.

Active and inactive are the calls of the source. No cut-off for these calls is given here.

This is an account of results in ChEMBL document CHEMBL4622846, “Synthesis and cytotoxic effects of 2-thio-3,4-dihydroquinazoline derivatives as novel T-type calcium channel blockers” (Bioorg Med Chem, 2020).

A word on the inhibition: it is the change of the read-out against control, counted positive when it falls. For orientation: IC50 means the midpoint of a concentration-inhibition curve.

T3 sequence (Q9P0X4 whole entry): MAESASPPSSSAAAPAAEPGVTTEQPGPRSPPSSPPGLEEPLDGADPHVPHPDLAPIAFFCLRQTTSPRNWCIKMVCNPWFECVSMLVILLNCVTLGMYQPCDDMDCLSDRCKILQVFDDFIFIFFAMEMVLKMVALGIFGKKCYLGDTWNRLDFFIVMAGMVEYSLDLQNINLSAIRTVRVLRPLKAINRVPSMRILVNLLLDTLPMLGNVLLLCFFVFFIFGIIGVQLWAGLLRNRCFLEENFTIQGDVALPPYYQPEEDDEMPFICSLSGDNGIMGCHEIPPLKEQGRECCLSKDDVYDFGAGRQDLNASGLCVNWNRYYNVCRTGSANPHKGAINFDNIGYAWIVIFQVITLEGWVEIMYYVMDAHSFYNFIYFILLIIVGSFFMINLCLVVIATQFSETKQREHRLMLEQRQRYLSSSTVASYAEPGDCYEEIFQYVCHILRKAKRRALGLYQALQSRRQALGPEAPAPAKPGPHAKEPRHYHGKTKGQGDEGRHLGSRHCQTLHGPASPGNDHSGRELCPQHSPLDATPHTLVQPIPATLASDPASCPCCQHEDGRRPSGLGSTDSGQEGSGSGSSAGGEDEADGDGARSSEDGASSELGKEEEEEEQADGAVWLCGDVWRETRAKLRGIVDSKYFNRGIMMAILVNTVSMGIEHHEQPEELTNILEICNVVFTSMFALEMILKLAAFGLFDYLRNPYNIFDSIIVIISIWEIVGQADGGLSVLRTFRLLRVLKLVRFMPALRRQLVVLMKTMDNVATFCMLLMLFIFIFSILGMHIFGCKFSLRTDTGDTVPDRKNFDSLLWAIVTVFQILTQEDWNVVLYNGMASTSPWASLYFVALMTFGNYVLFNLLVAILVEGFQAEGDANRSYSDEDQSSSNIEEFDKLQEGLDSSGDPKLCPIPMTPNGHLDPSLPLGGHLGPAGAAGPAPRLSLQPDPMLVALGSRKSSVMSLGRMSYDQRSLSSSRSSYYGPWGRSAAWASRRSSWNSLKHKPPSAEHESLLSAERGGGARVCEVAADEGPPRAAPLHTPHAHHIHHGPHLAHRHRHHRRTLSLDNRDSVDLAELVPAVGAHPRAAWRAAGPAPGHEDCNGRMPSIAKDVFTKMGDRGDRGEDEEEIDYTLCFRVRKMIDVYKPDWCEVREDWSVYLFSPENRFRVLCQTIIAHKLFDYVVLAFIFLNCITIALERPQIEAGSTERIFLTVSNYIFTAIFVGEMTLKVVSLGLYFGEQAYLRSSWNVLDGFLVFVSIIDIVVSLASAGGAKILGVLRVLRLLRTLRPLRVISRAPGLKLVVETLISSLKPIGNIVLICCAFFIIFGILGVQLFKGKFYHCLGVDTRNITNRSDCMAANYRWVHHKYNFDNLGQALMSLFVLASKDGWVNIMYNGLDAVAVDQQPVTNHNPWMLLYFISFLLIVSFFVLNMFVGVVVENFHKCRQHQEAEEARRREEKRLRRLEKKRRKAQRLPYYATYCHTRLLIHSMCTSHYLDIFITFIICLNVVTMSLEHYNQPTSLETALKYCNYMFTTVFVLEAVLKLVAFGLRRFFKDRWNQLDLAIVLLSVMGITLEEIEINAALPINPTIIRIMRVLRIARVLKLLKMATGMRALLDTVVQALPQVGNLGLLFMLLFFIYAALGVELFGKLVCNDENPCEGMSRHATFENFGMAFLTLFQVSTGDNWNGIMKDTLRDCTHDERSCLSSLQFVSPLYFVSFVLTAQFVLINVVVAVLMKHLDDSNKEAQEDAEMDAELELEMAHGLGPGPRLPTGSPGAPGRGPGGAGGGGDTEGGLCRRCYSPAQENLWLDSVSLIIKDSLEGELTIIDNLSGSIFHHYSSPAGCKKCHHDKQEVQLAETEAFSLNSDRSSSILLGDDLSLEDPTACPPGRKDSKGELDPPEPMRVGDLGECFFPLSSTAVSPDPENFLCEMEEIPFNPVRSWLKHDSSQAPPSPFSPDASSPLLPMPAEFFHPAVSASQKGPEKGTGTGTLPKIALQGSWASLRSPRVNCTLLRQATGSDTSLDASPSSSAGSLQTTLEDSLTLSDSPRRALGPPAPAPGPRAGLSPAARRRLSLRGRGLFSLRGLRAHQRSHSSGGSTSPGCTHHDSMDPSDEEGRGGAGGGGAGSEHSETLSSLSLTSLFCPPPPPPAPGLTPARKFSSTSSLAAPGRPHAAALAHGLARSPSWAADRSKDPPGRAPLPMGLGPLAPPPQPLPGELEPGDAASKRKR
T2 sequence (O95180 whole entry): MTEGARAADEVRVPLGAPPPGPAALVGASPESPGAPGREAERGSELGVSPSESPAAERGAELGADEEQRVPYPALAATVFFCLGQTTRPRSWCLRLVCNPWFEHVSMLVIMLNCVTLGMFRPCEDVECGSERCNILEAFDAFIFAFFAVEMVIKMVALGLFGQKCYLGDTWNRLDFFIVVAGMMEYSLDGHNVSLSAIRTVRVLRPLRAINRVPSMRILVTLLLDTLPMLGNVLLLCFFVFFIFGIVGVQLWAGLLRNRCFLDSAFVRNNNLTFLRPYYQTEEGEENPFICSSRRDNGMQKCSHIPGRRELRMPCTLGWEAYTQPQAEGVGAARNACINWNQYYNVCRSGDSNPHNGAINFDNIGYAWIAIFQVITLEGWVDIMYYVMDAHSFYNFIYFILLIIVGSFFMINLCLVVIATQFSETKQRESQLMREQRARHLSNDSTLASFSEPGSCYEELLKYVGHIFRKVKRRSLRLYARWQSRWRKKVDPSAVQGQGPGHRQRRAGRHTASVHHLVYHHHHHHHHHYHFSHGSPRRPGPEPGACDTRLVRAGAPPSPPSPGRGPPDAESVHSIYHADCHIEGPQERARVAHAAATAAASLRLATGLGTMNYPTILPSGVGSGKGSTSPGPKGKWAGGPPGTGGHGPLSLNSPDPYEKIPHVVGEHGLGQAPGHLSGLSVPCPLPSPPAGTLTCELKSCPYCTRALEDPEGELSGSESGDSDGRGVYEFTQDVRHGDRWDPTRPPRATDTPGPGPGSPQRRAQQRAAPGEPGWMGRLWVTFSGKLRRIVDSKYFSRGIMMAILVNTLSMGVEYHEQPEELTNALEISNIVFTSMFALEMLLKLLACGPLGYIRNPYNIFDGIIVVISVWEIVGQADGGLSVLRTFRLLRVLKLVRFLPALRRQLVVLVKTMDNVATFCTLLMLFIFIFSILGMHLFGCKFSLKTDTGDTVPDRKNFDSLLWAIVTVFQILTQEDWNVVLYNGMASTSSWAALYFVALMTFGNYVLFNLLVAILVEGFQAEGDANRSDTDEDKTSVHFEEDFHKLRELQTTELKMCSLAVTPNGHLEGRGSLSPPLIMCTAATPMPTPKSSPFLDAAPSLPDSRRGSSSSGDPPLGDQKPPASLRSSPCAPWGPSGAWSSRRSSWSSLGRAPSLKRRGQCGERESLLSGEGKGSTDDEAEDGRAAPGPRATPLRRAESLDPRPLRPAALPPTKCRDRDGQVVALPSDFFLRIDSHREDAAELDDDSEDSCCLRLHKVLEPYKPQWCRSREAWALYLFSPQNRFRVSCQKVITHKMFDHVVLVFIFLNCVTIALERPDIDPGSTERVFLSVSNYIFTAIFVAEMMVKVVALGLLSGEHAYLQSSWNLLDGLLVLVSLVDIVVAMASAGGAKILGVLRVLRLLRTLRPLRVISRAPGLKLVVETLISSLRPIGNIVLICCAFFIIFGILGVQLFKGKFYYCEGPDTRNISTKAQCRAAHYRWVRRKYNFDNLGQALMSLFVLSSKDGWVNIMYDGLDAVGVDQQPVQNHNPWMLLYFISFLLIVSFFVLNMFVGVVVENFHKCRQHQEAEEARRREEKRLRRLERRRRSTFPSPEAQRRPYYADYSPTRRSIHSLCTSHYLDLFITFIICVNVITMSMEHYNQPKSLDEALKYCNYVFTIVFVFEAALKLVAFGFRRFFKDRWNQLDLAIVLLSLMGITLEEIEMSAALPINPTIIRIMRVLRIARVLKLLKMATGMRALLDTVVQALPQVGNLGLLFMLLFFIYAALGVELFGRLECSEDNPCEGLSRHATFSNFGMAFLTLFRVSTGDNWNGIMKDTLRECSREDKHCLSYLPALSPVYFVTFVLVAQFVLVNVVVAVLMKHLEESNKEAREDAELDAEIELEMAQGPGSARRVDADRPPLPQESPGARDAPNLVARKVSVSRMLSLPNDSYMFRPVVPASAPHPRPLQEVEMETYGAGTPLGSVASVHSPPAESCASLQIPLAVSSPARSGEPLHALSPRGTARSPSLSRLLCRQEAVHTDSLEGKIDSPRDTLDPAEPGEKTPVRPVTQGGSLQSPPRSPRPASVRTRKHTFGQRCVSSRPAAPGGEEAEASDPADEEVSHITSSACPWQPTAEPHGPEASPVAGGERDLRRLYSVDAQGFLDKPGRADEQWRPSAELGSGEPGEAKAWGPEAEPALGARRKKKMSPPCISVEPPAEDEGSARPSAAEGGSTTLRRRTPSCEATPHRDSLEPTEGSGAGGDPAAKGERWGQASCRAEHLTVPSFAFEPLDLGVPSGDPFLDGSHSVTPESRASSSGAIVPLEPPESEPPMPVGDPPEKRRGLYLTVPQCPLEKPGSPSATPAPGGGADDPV

Regarding `O=C(CC1c2ccccc2N=C(SCCCCCN2CCCC2)N1c1ccccc1)NCc1ccc(F)cc1` (stereo unspecified), the inhibition in assay [1] was found to be 60.1%; in assay [2], 40%; in assay [3] it was 22.1%. Further, the IC50 with A549 was 89.9 µM; with HCT-116, 27.1 µM; in assay [4], 13.5 µM; in assay [5], 57.4 µM.
As to `O=C(CC1c2ccccc2N=C(SCCCCCN2CCCC2)N1c1ccc(-c2ccccc2)cc1)NCc1ccccc1` (stereo unspecified), the inhibition worked out at 93.9% in assay [1], 73.1% in assay [2] and 92.7% in assay [3]. The IC50 in the assay with A549 is 14.9 µM; in the assay with HCT-116 it was 5.5 µM; in assay [4], 0.66 µM; in assay [5], 6.9 µM; in assay [6] (read-out: IC50), 0.81 µM.
Turning to `O=C(CC1c2ccccc2N=C(SCCCCCN2CCCC2)N1c1ccc(-c2ccc(F)cc2)cc1)NCc1ccccc1` (stereo unspecified), the inhibition in assay [1] came out at 83.9%; in assay [2], 97.5%; in assay [3] it was 68.2%. Further, the concentration for half-maximal inhibition (IC50) in the assay with A549 was 17.8 µM; with HCT-116, 12.5 µM; in assay [4] it was 2.18 µM; in assay [5], 0.26 µM; in assay [6] (read-out: IC50) it was 5.1 µM.
As for `O=C(CC1c2ccccc2N=C(SCCCCCN2CCCC2)N1c1ccc(-c2ccc(F)cc2)cc1)NCc1ccc(F)cc1` (stereo unspecified), the inhibition in assay [1] came to 83.9%; in assay [2], 76.6%; in assay [3] it was 35.1%. Moreover, the IC50 amounted to 12.6 µM in the assay on A549; 7.7 µM in the assay with HCT-116; 12.6 µM in assay [4]; 4.88 µM in assay [5]; 19.8 µM in assay [6] (read-out: IC50).
Turning to `CN(C)CCCCCN(C)C1=Nc2ccccc2C(CC(=O)NCc2ccccc2)N1c1ccc(-c2ccccc2)cc1` (stereo unspecified), in assay [2], the inhibition stood at 89.3%. In the assay with HCT-116, the half-maximal inhibitory concentration (IC50) came out at 5.6 µM.
As to `CN(C)CCCCCSC1=Nc2ccccc2C(CC(=O)NCc2ccccc2)N1c1ccc(-c2ccccc2)cc1` (stereo unspecified), the inhibition came out at 76.2% in assay [1], 83.9% in assay [2] and 85.6% in assay [3]. Further, the concentration for half-maximal inhibition (IC50) was determined as 18.1 µM in the assay with A549; 9.6 µM in the assay with HCT-116; 7.77 µM in assay [4]; 2.4 µM in assay [5]; 1.76 µM in assay [6] (read-out: IC50).
In the case of `CN(C)CCCCCSC1=Nc2ccccc2C(CC(=O)NCc2ccccc2)N1c1ccccc1` (stereo unspecified), the figures for the inhibition in assay [1], in assay [2] and in assay [3] were 46.5%, 51.8% and 76%, respectively. In addition, the half-maximal inhibitory concentration (IC50) is 138 µM in the assay on A549; 38.8 µM in the assay with HCT-116; 18.5 µM in assay [4]; 13.8 µM in assay [5]; 3.2 µM in assay [6] (read-out: IC50).
In the case of `O=C(CC1c2ccccc2N=C(SCCCCCN2CCCC2)N1c1ccc(-c2ccccc2)cc1)NCc1ccc(F)cc1` (stereo unspecified), the inhibition in assay [1] came out at 51.5%; in assay [2] it was 69%; in assay [3], 55.9%. For the same compound, the IC50 in the assay on A549 was found to be 19.8 µM; in the assay on HCT-116, 6.2 µM; in assay [4], 15 µM; in assay [5], 276 µM; in assay [6] (read-out: IC50) it was 13.6 µM.
Regarding `CN(C)CCCCCSC1=Nc2ccccc2C(CC(=O)NCc2ccc(F)cc2)N1c1ccc(-c2ccc(F)cc2)cc1` (stereo unspecified), the inhibition in assay [1] was 96.2%; in assay [2], 84.8%; in assay [3], 92%. Further, the half-inhibitory concentration (IC50) is 11.3 µM with A549; 9.3 µM in the assay on HCT-116; 0.4 µM in assay [4]; 2.76 µM in assay [5]; 0.96 µM in assay [6] (read-out: IC50).
Turning to `CN(C)CCCCCSC1=Nc2ccccc2C(CC(=O)NCc2ccccc2)N1c1ccc(-c2ccc(F)cc2)cc1` (stereo unspecified), the inhibition stood at 97.6% in assay [1], 75.6% in assay [2] and 66.7% in assay [3]. For the same compound, the IC50 in the assay on A549 came out at 17.6 µM; in the assay on HCT-116, 9.2 µM; in assay [4] it was 0.25 µM; in assay [5], 4.18 µM; in assay [6] (read-out: IC50), 9.06 µM.
On to `O=C(CC1c2ccccc2N=C(SCCCCCN2CCCC2)N1c1ccccc1)NCc1ccccc1` (stereo unspecified), for which the inhibition stood at 60.4% in assay [1], 61.6% in assay [2] and 78.3% in assay [3]. The half-inhibitory concentration (IC50) in the assay with A549 was found to be 98.1 µM; in the assay on HCT-116, 31.3 µM; in assay [4] it was 77 µM; in assay [5], 7.71 µM; in assay [6] (read-out: IC50), 6.19 µM.
Take `CN(C)CCCCCSC1=Nc2ccccc2C(CC(=O)NCc2ccc(F)cc2)N1c1ccc(-c2ccccc2)cc1` (stereo unspecified): the inhibition in assay [1] came out at 31%; in assay [2], 83.1%; in assay [3] it was 69.3%. For the same compound, the IC50 with A549 turned out to be 5 µM; in the assay on HCT-116 it was 6.4 µM; in assay [4], 27.4 µM; in assay [5] it was 3.14 µM; in assay [6] (read-out: IC50) it was 6.1 µM.
Consider `CN(C)CCCCCSC1=Nc2ccccc2C(CC(=O)NCc2ccc(F)cc2)N1c1ccccc1` (stereo unspecified), for which the values for the inhibition in assay [1] and in assay [2] were 26.7% and 7%, respectively. Further, the inhibition result in assay [3] was “inactive”. Besides, the half-inhibitory concentration (IC50) was 36.8 µM in the assay on A549, 38.8 µM in the assay on HCT-116, 832 µM in assay [5] and “Not Active” in assay [6].
